{
  "source": "patent US11542471B2",
  "about": "“Method for producing ciliary marginal zone-like structure” (SUMITOMO CHEMICAL COMPANY, LIMITED, priority 2012, dated 2023)",
  "tested_on": "cell aggregate containing a retinal tissue (RAX::GFP knock-in human ES cells, derived from KhES-1)",
  "assay": "Suspension culture of a human ES cell-derived cell aggregate containing retinal tissue in serum-free medium with a substance acting on the Wnt signal pathway; cryosection immunostaining",
  "format": "cell-based",
  "details": "3 μM CHIR99021, serum-free medium, 3 days from day 18 of suspension culture",
  "experimental": "The “proportion of Chx10 positive cells” in a retinal tissue contained in a cell aggregate produced as mentioned above can be examined by, for example, the following method. • (1) First, a cryosection of “a cell aggregate comprising a retinal tissue” is prepared. • (2) Then, immunostaining of Rax protein or, when a gene recombinant cell obtained by altering a Rax gene expressing cell to express a fluorescence protein such as GFP is used, the expression of the aforementioned fluorescence protein, is observed using a fluorescence microscope and so on, whereby a retinal tissue region expressing Rax gene is specified. • (3) Using the same section as the cryosection wherein the retinal tissue region expressing Rax gene has been specified or an adjacent section as a sample, the nucleus is stained with a nuclear staining reagent such as Dapi. Then, the number of stained nuclei in the above-specified retinal tissue region expressing Rax gene is counted, whereby the number of the cells in the retinal tissue region is measured. • (4) Using the same section as the cryosection wherein the retinal tissue region expressing Rax gene has been specified or an adjacent section as a sample, Chx10 protein is immunostained. […]",
  "data": [
    {"molecule": "Cc1c[nH]c(-c2cnc(NCCNc3ccc(C#N)cn3)nc2-c2ccc(Cl)cc2Cl)n1", "note": "[CHIR99021]", "values": [
      {"measurement": "appearance of RPE65 gene expressing cell in the cell aggregate", "value": "did not appear"},
      {"measurement": "proportion of Chx10 positive cells in the retinal tissue", "setting": "about 40% before addition", "value": "about 3%"}
    ]}
  ]
}
